Usually solubility stands for the concentration that dissolves in the medium under given conditions.

Values after ≈ are worked out from the molar mass of the structure shown.

Data on 25 compounds can be found in ChEMBL document CHEMBL1140567, “2-Aryl benzimidazoles featuring alkyl-linked pendant alcohols and amines as inhibitors of checkpoint kinase Chk2” (Bioorg Med Chem Lett, 2007).

A short description of data set [1]: Solubility in stimulated intestinal fluid at pH 7 after 3 days. It is filed as physicochemical. Particulars: simulated intestinal fluid.
A short description of data set [2]: Solubility in stimulated gastric fluid at pH 2 umol after 3 days. The class given is physicochemical. The following applies: simulated gastric fluid.

As to `Cc1ccc(CN2CCC(CCOc3ccc(-c4nc5cc(C(N)=O)ccc5[nH]4)cc3)CC2)cc1`, the solubility at 72 h in data set [1] was 3 µM (≈ 1.41 µg/mL); in data set [2] it was 84 µM (≈ 39.4 µg/mL).

Turning to `COc1ccc(CN2CCC(CCOc3ccc(-c4nc5cc(C(N)=O)ccc5[nH]4)cc3)CC2)cc1`, the figures for the solubility at 72 h in data set [1] and in data set [2] were less than 1 µM and greater than 400 µM, respectively.

Consider `NC(=O)c1ccc2[nH]c(-c3ccc(OCCN4CCCCC4)cc3)nc2c1`, for which the solubility at 72 h in data set [1] and in data set [2] was greater than 400 µM each time.

With `NC(=O)c1ccc2[nH]c(-c3ccc(OCCC4CCN(Cc5ccc(Cl)c(Cl)c5)CC4)cc3)nc2c1`, the solubility at 72 h is 15 µM (≈ 7.85 µg/mL) in data set [1] and 13 µM (≈ 6.81 µg/mL) in data set [2].

Turning to `CN(C)CCCOc1ccc(-c2nc3cc(C(N)=O)ccc3[nH]2)cc1`, the solubility at 72 h in data set [1] and in data set [2] was greater than 400 µM in each case.

For the compound `CC(=O)N1CCC(CCOc2ccc(-c3nc4cc(C(N)=O)ccc4[nH]3)cc2)CC1`, the solubility at 72 h is 2 µM (≈ 0.813 µg/mL) in data set [1] and 87 µM (≈ 35.4 µg/mL) in data set [2].

For `NC(=O)c1ccc2[nH]c(-c3ccc(OCCCN4CCCCC4)cc3)nc2c1`, the solubility at 72 h in data set [1] and in data set [2] was greater than 400 µM throughout.

Turning to `NC(=O)c1ccc2[nH]c(-c3ccc(OCC4CCNCC4)cc3)nc2c1`, the solubility at 72 h in data set [1] and in data set [2] was greater than 400 µM in each case.

`NC(=O)c1ccc2[nH]c(-c3ccc(OCC4CCN(Cc5ccccc5)CC4)cc3)nc2c1`: the solubility at 72 h in data set [1] and in data set [2] was greater than 400 µM each time.

As for `NC(=O)c1ccc2[nH]c(-c3ccc(OCCC4CCCCN4C(=O)c4ccccc4)cc3)nc2c1` (stereo not given), the results for the solubility at 72 h in data set [1] and in data set [2] were 18 µM (≈ 8.43 µg/mL) and 28 µM (≈ 13.1 µg/mL), respectively.

`NC(=O)c1ccc2[nH]c(-c3ccc(OCCC4CCN(C(=O)c5ccccc5)CC4)cc3)nc2c1`: the solubility at 72 h in data set [1] and in data set [2] was 3 µM (≈ 1.41 µg/mL) each time.

With `NC(=O)c1ccc2[nH]c(-c3ccc(OCCC4CCCCN4Cc4ccccc4)cc3)nc2c1` (stereo not given), the results for the solubility at 72 h in data set [1] and in data set [2] were 155 µM (≈ 70.5 µg/mL) and greater than 400 µM, respectively.

As to `Cc1ccc(CN2CCCCC2CCOc2ccc(-c3nc4cc(C(N)=O)ccc4[nH]3)cc2)cc1` (stereo not given), the solubility at 72 h in data set [1] was 97 µM (≈ 45.5 µg/mL); in data set [2], greater than 400 µM.

For the compound `NC(=O)c1ccc2[nH]c(-c3ccc(OCC4CCCN(Cc5ccccc5)C4)cc3)nc2c1` (stereo not given), the solubility at 72 h in data set [1] is 267 µM (≈ 118 µg/mL); in data set [2] it was greater than 400 µM.

Consider `NC(=O)c1ccc2[nH]c(-c3ccc(OCCCO)cc3)nc2c1`, for which the solubility at 72 h in data set [1] is 7 µM (≈ 2.18 µg/mL); in data set [2], 185 µM (≈ 57.6 µg/mL).

In the case of `COc1ccc(CN2CCCCC2CCOc2ccc(-c3nc4cc(C(N)=O)ccc4[nH]3)cc2)cc1` (stereo not given), the solubility at 72 h in data set [1] is 84 µM (≈ 40.7 µg/mL); in data set [2] it was greater than 400 µM.

On to `NC(=O)c1ccc2[nH]c(-c3ccc(OC4CCC(O)C4)cc3)nc2c1` (stereo not given), for which the solubility at 72 h was 139 µM (≈ 46.9 µg/mL) in data set [1] and greater than 400 µM in data set [2].

Turning to `NC(=O)c1ccc2[nH]c(-c3ccc(OCCC4CCCCN4Cc4ccc(Cl)c(Cl)c4)cc3)nc2c1` (stereo not given), the results for the solubility at 72 h in data set [1] and in data set [2] were 229 µM (≈ 120 µg/mL) and 39 µM (≈ 20.4 µg/mL), respectively.

Take `NC(=O)c1ccc2[nH]c(-c3ccc(OCCO)cc3)nc2c1`: the solubility at 72 h in data set [1] and in data set [2] was greater than 400 µM in each case.

With `NC(=O)c1ccc2[nH]c(-c3ccc(OCCC4CCCCN4Cc4ccc(Cl)cc4)cc3)nc2c1` (stereo not given), the solubility at 72 h was 115 µM (≈ 56.2 µg/mL) in data set [1] and greater than 400 µM in data set [2].

As to `NC(=O)c1ccc2[nH]c(-c3ccc(OCCC4CCN(Cc5ccccc5)CC4)cc3)nc2c1`, the solubility at 72 h in data set [1] was 5 µM (≈ 2.27 µg/mL); in data set [2] it was 110 µM (≈ 50 µg/mL).

As to `NC(=O)c1ccc2[nH]c(-c3ccc(OC4CCCNC4)cc3)nc2c1` (stereo not given), the solubility at 72 h in data set [1] and in data set [2] was greater than 400 µM throughout.

For the compound `CC(=O)N1CCCCC1CCOc1ccc(-c2nc3cc(C(N)=O)ccc3[nH]2)cc1` (stereo not given), the figures for the solubility at 72 h in data set [1] and in data set [2] were 193 µM (≈ 78.5 µg/mL) and greater than 400 µM, respectively.

For the compound `NC(=O)c1ccc2[nH]c(-c3ccc(OCCC4CCN(Cc5ccc(Cl)cc5)CC4)cc3)nc2c1`, the solubility at 72 h in data set [1] was 2 µM (≈ 0.978 µg/mL); in data set [2] it was 179 µM (≈ 87.5 µg/mL).

As to `CN1CCC(Oc2ccc(-c3nc4cc(C(N)=O)ccc4[nH]3)cc2)CC1`, the solubility at 72 h in data set [1] and in data set [2] was greater than 400 µM throughout.
